Source: patent publication US11407725B2 (The Board of Trustees of the University of Illinois, priority 2018, dated 2022)
Values joined by “and” are separate entries in the source; they are usually repeats but may differ in a detail not shown here. Identical values can stand only once. “Also recorded” adds a separate entry of the source.

Experiments:
A549 cells [1] = experiment: Flow cytometry of A549 cells with red-AlDeSense; assay type: cell-based
Procedure: For all cell lines, 200,000 cells in a single-cell suspension were transferred into 1.5 mL Eppendorf tubes. Cells were pelleted by centrifugation at 400 g for 5 minutes at room temperature. After removing the supernatant by aspiration, cells were resuspended in 300 μL premixed PBS supplemented with verapamil, probenecid, and novobiocin. […] Samples were immediately stored on ice. Cells were stained with red-AlDeSense or Ctrl-red-AlDeSense (100 μL of 4 μM dye solution; dyes were normalized by fluorescence spectroscopy). Samples were analyzed on a BD LSR II Flow Cytometry Analyzer using a 488 nm laser and a 550 LP and 610/30 filter set. Samples were analyzed every 5 minutes for 15 minutes, with the samples being placed back on ice between data collection. Data were analyzed on FCS Express 6.04.

A549 cells [2] = experiment: Confocal imaging of A549 cells with red-AlDeSense; assay type: cell-based; settings: 1 μM dye
Procedure: Nunc™ Lab-Tek™ 8-well Chamber Coverglass (Thermo Fisher) were coated with poly-L-lysine (Trevigen). For cells that were also stained with an antibody, 2,000,000 cells were transferred to an Eppendorf tube. The cells were resuspended in 200 μL of antibody buffer (5% BSA and 1 mg/mL NaN3 in PBS) and treated with 2 μL FITC-labeled anti-CD44 antibody (10 mg/mL, Sino Biological) and left on ice for 20 minutes. In all cases, cells were added at 150,000 cells/well to the coated slides 1 hour prior to imaging. […] Cells were treated with 100 uL red-AlDeSense or Ctrl-red-AlDeSense solution (4 μM dye in imaging buffer; dyes were normalized by fluorescence spectroscopy) and 0.8 μL Hoescht 33342 (5 mg/mL in PBS) for 10 minutes. […] Hoescht 33342 was excited with a 405 nm laser and detected with a 415-502 filter set. FITC was excited with a 488 nm laser and detected with a 502-561 filter set. […] was excited with a 594 nm laser and detected with a 600-735 filter set. […] Images were analyzed using ZEN 3.0 (blue edition) software. Mean fluorescence for the FITC-labeled anti-CD44 antibody was multiplied by the cell diameter to account for its 1-dimensional cell membrane staining, as opposed to 2-dimensional intracellular staining of (Ctrl-)red-AlDeSense.

ALDH1A1 [3] = target: T1, ALDH1A1 (Homo sapiens, UniProt P00352); experiment: ALDH1A1 kinetics; assay type: biochemical
T1 construct: made in house
T1 sequence (P00352 1-501): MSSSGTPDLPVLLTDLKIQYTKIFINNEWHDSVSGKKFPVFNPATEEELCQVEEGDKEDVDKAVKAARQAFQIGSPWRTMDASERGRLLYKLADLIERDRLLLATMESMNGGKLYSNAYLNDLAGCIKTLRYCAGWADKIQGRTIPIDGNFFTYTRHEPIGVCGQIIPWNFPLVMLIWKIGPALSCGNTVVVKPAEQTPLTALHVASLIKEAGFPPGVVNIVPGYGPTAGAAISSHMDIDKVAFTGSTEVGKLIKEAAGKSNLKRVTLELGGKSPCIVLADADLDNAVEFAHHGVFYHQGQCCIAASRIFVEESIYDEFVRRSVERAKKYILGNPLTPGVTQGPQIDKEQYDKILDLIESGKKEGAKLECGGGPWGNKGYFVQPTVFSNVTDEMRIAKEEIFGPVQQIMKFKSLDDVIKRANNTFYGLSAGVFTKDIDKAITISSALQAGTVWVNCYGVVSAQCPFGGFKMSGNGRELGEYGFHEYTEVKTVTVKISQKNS
Procedure: Solutions were prepared of 2.0 mM NAD+ and 0.1-2.5 μM AlDeSense or red-AlDeSense in 50 mM triethanolamine solution (pH 7.4). For every concentration, 1 unit of enzyme (as defined and determined in ALDH Isoform Selectivity) was added. Fluorescence was monitored for 30 seconds to determine V0. AlDeSense was excited at 490 nm and monitored at 510 nm. Red-AlDeSense was excited at 590 nm and monitored at 610 nm. Each condition was performed in triplicate. Protein concentration was determined using the Pierce™ BCA Protein Assay Kit. Data was analyzed using Microsoft Excel.

[4] = pKa determination (pH profile of fluorescence); settings: 40 mM Britton-Robinson buffer
Procedure: (§1) The fluorescence of 1 μM of each compound was measured in 40 mM Britton-Robinson buffer at pH 2-9 in 0.5 pH intervals. Each measurement was performed in triplicate. […] Error bars are ±standard deviation (SD).

ALDH1A1 [5] = target: T1, ALDH1A1; experiment: Fluorescence turn-on of AlDeSense with recombinant ALDH1A1; assay type: biochemical; settings: fluorescent enhancement when treated with ALDH1A1; 1 μM probe
Procedure: Activation of AlDeSense was assessed using 20 units of each ALDH isoform. Activity was determined by activity measurements using each isoform's preferred substrate (1 unit=1 μmol substrate turned over/mol enzyme/min). Further details are in the supplementary information. All enzymatic reactions were performed in 50 mM triethanolamine buffer (pH 7.4, Thermo Fisher) with 2.5 mM NAD+(Alfa Aesar) and 5% v/v DMSO (Thermo Fisher) in a 1 mL quartz cuvette at room temperature.
AlDeSense activation was determined using fluorescence. Immediately before measurement, AlDeSense (1 μM) was added to a quartz cuvette. After vigorous mixing, the reaction was monitored at room temperature for 15 min. Fluorescence spectra were acquired according to following parameters: λex=498 nm, and emission range=505-580 nm. All scans were normalized to the signal from AlDeSense in 50 mM TEA and 2.5 mM NAD+(without enzyme). Endpoint measurements at 15 min were performed in triplicate and reported as the averages±standard deviation.

[6] = tested on: panel of the most common ALDH isoforms; experiment: AlDeSense isoform selectivity assay; assay type: biochemical, human; settings: 20 units of each isoform, 1 μM AlDeSense
Procedure: The activity of each isoform of ALDH was confirmed by monitoring the production of NADH at 340 nm when incubated with the most commonly used substrate for that enzyme (propionaldehyde for ALDH1A1, ALDH1A2, ALDH1A3, ALDH2 and ALDH4A1; benzaldehyde for ALDH3A1, and succinic semialdehyde for ALDH5A1). Each isoform was diluted with 50 mM triethanolamine (TEA, pH 7.4) to a final concentration of 1 μM and placed in a 1 mL quartz cuvette. Directly before measurement, NAD^+ was added to final concentration of 2.5 mM and the preferred substrate was added to a final concentration of 1 mM. Absorbance spectra were taken from 300 to 500 nm every half minute for 15 minutes. Units of activity for each enzyme were calculated from the slope of absorbance increase at 340 nm over time, (1 unit=1 μmol substrate turned over/[…]/min).
Activation of AlDeSense was assessed using 20 units of each ALDH isoform. Activity was determined by activity measurements using each isoform's preferred substrate (1 unit=1 μmol substrate turned over/mol enzyme/min). Further details are in the supplementary information. […]
AlDeSense activation was determined using fluorescence. […] After vigorous mixing, the reaction was monitored at room temperature for 15 min. Fluorescence spectra were acquired according to following parameters: λex=498 nm, and emission range=505-580 nm. […]

Procedure for physchem: as §1

Row | SMILES | extent of red-AlDeSense activation with DEAB (A549 cells [1]; A549 cells, plus 20 μM DEAB) [%] | A549 cells displaying high ALDH1A1 activity (A549 cells [1]; flow cytometry, 1 μM dye) [%] | pKa (physchem) | A549 cells with high ALDH1A1 activity by confocal microscopy (A549 cells [2]) [%] | higher catalytic efficiency (kcat/Km) versus AlDeSense (ALDH1A1 [3]) [fold] | pKa [4] | Turn-on (fold) (ALDH1A1 [5]) | cross-reactivity against panel of ALDH isoforms [6]
1 | Cc1cc(C=O)c(F)c(F)c1C1=C2C=CC(=O)C=C2[Si](C)(C)c2cc(O)ccc21 | 67.8±3.4 | 78.1±0.3 | 6.68 | 77.6 | 2.3 |  |  | 
2 | Cc1cc(C=O)ccc1-c1c2cc(F)c(=O)cc-2oc2cc(O)c(F)cc12 [AlDeSense] |  |  |  |  |  | 4.81 | 20 fold and 20.0 fold | only ALDH1A1 led to probe activation; also recorded: did not observe cross-reactivity; also recorded: selective for only the ALDH1A1 isoform
